# Data taken from the supplement of paper PMC11061612.
# Key:
# Experiment in all cases: combination Emax (second highest fraction inhibited in the dose matrix, 72 h); higher = more inhibition; extreme values may be limits of the assay
# [1] = system: NCI-H2342 (Lung Adenocarcinoma)
# In short: (§1)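 Cell lines grown in DMEM/F12 or RPMI with 10% FBS were plated in 1536-well plates and held 24 hours at 37°C, 5% CO2 before 72 hours of exposure to two-drug dose matrices, with DMSO typically at 0.2%. CellTiter-Glo 2.0 luminescence gave viability, which was converted to inhibition. Vehicle wells were set to 0 and blank wells to 1. Combination Emax is the second-highest inhibition in the matrix, and Bliss excess is the observed combination effect minus the expected EA + EB − EA·EB, where EA and EB are the single-agent effects.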
# [2] = system: KE-37 (T-Lymphoblastic Leukemia)
# In short: as §1
# [3] = system: LN-229 (Glioblastoma)
# In short: as §1
# [4] = system: TE-8 (Esophageal Squamous Cell Carcinoma)
# In short: as §1
# [5] = system: 23132-87 (Gastric Carcinoma)
# In short: as §1
# [6] = system: A2058 (Melanoma)
# In short: as §1
# [7] = system: NCI-H23 (Lung Adenocarcinoma)
# In short: as §1
# [8] = system: L-1236 (Hodgkin's Lymphoma)
# In short: as §1
# [9] = system: COLO-680N (Esophageal Squamous Cell Carcinoma)
# In short: as §1
# [10] = system: FADU (Head and Neck Carcinoma)
# In short: as §1
# [11] = system: SU-DHL-10 (B-Cell Non-Hodgkin's Lymphoma)
# In short: as §1
# [12] = system: GB-1 (Glioblastoma)
# In short: as §1
# [13] = system: WM278 (Melanoma)
# In short: as §1
# [14] = system: REH (B-Lymphoblastic Leukemia)
# In short: as §1
# [15] = system: CAL-62 (Thyroid Gland Carcinoma)
# In short: as §1
# [16] = system: HSC-39 (Gastric Carcinoma)
# In short: as §1
# [17] = system: SF268 (Low Grade Glioma)
# In short: as §1
# [18] = system: MFE-280 (Endometrial Carcinoma)
# In short: as §1
# [19] = system: RERF-GC-1B (Gastric Carcinoma)
# In short: as §1
# [20] = system: PC-3_[JPC-3] (Lung Adenocarcinoma)
# In short: as §1
Structure (SMILES),combination Emax [1],combination Emax [2],combination Emax [3],combination Emax [4],combination Emax [5],combination Emax [6],combination Emax [7],combination Emax [8],combination Emax [9],combination Emax [10],combination Emax [11],combination Emax [12],combination Emax [13],combination Emax [14],combination Emax [15],combination Emax [16],combination Emax [17],combination Emax [18],combination Emax [19],combination Emax [20]
"CN(C)CCCOc1ccc(-c2ccc3ncc4c(c3c2)n(C2CCOCC2)c(=O)n4C)cn1 [AZD0156] + C=CCn1c(=O)c2cnc(Nc3ccc(N4CCN(C)CC4)cc3)nc2n1-c1cccc(C(C)(C)O)n1 [AZD1775] (first compound max 1 µM, partner max 1 µM)",0.162,1,0.314,0.783,0.645,0.121,0.815,0.755,0.196,0.617,0.936,0.263,0.228,0.757,0.709,0.946,0.225,0.55,0.772,0.393
"CN(C)CCCOc1ccc(-c2ccc3ncc4c(c3c2)n(C2CCOCC2)c(=O)n4C)cn1 [AZD0156] + CCN(CCO)CCCOc1ccc2c(Nc3cc(CC(=O)Nc4cccc(F)c4)[nH]n3)ncnc2c1 [AZD2811] (first compound max 1 µM, 7x7, partner max 1 µM)",0.145,1,0.123,0.196,0.118,0.0924,0.151,0.215,0.0884,0.228,0.835,0.0845,0.0859,0.481,0.182,0.935,0.142,0.47,0.423,0.101
"CN(C)CCCOc1ccc(-c2ccc3ncc4c(c3c2)n(C2CCOCC2)c(=O)n4C)cn1 [AZD0156] + C[C@@H]1COCCN1C2=NC(=NC(=C2)C3(CC3)[S@](=N)(=O)C)C4=C5C=CNC5=NC=C4 [AZD6738] (first compound max 1 µM, 7x7, partner max 10 µM)",0.166,1,0.54,0.817,0.873,0.225,0.786,0.634,0.267,0.758,0.979,0.392,0.341,0.625,0.755,1,0.497,0.335,0.491,0.329
"CN(C)CCCOc1ccc(-c2ccc3ncc4c(c3c2)n(C2CCOCC2)c(=O)n4C)cn1 [AZD0156] + O=C(c1cc(Cc2n[nH]c(=O)c3ccccc23)ccc1F)N1CCN(C(=O)C2CC2)CC1 [Olaparib] (first compound max 3 µM, partner max 3 µM)",0.0678,0.415,0.107,–,0.644,0.37,0.117,0.326,0.16,0.258,0.342,0.238,0.209,0.457,0.342,0.413,0.21,0.312,0.317,0.181
"C=CCn1c(=O)c2cnc(Nc3ccc(N4CCN(C)CC4)cc3)nc2n1-c1cccc(C(C)(C)O)n1 [AZD1775] + C1CN(CCC1(C(=O)N[C@@H](CCO)C2=CC=C(C=C2)Cl)N)C3=NC=NC4=C3C=CN4 [Capivasertib] (first compound max 3 µM, partner max 3 µM)",0.282,1,0.419,–,0.829,0.886,0.908,0.876,0.306,0.644,1,0.625,0.389,0.93,0.868,0.958,0.456,0.451,–,0.577
"C=CCn1c(=O)c2cnc(Nc3ccc(N4CCN(C)CC4)cc3)nc2n1-c1cccc(C(C)(C)O)n1 [AZD1775] + C[C@@H]1COCCN1C2=NC(=NC(=C2)C3(CC3)[S@](=N)(=O)C)C4=C5C=CNC5=NC=C4 [AZD6738] (first compound max 1 µM, partner max 10 µM)",0.426,1,0.59,0.932,0.918,0.413,0.913,0.782,0.529,0.875,1,0.595,0.44,0.955,0.928,1,0.526,0.627,0.851,0.537
"C=CCn1c(=O)c2cnc(Nc3ccc(N4CCN(C)CC4)cc3)nc2n1-c1cccc(C(C)(C)O)n1 [AZD1775] + O=C(c1cc(Cc2n[nH]c(=O)c3ccccc23)ccc1F)N1CCN(C(=O)C2CC2)CC1 [Olaparib] (first compound max 1 µM, partner max 10 µM)",0.229,1,0.258,0.865,0.605,0.284,0.761,0.746,0.283,0.591,0.962,0.318,0.209,0.835,0.796,0.988,0.251,0.601,0.693,0.458
"CN(CCO)CC[C@H](CSc1ccccc1)Nc1ccc(S(=O)(=O)NC(=O)c2ccc(N3CCC([C@@H](O)c4ccccc4-c4ccc(Cl)cc4)CC3)cc2)cc1S(=O)(=O)C(F)(F)F [AZD4320] + Cn1cnc2c(F)c(Nc3ccc(Br)cc3Cl)c(C(=O)NOCCO)cc21 [Selumetinib] (first compound max 1 µM, 7x7, partner max 3 µM)",0.423,1,0.397,0.502,0.615,0.76,0.435,0.999,0.246,0.832,0.617,0.519,0.918,0.992,–,0.57,0.69,0.705,0.716,0.571
"COc1nnc2ccc(N3CCC(c4ccc(OCCN5CCN(C)C(=O)[C@H]5C)cc4)CC3)nn12 [AZD5153] + CN(CC[C@H](CSC1=CC=CC=C1)NC2=C(C=C(C=C2)S(=O)(=O)NC(=O)C3=CC=C(C=C3)N4CCC(CC4)[C@H](C5=CC=CC=C5C6=CC=C(C=C6)Cl)O)S(=O)(=O)C(F)(F)F)CCO [AZD4320] (first compound max 1 µM, 7x7, partner max 1 µM)",–,1,0.335,–,0.349,0.577,0.766,–,–,0.45,1,0.292,0.829,–,–,–,0.552,–,0.813,–
"Cc1nc(Nc2ncc(C(=O)Nc3c(C)cccc3Cl)s2)cc(N2CCN(CCO)CC2)n1 [Dasatinib] + CC(=O)Nc1cccc(-n2c(=O)n(C3CC3)c(=O)c3c(Nc4ccc(I)cc4F)n(C)c(=O)c(C)c32)c1 [Trametinib] (first compound max 2 µM, 7x7, partner max 1 µM)",0.232,0.32,0.548,0.865,0.315,0.644,0.765,0.243,0.554,0.515,0.837,0.701,0.808,0.089,0.955,0.498,–,0.486,1,0.738
"CS(=O)(=O)CCNCc1ccc(-c2ccc3ncnc(Nc4ccc(OCc5cccc(F)c5)c(Cl)c4)c3c2)o1 [Lapatinib] + NC1(c2ccc(-c3nc4ccn5c(=O)[nH]nc5c4cc3-c3ccccc3)cc2)CCC1 [MK-2206] (first compound max 10 µM, 7x7, partner max 10 µM)",0.196,–,0.207,0.52,–,0.982,0.338,0.888,0.467,–,–,–,–,0.957,0.721,0.933,–,0.911,0.943,0.927
"CC(=O)c1c(C)c2cnc(Nc3ccc(N4CCNCC4)cn3)nc2n(C2CCCC2)c1=O [Palbociclib] + CN(CC[C@H](CSC1=CC=CC=C1)NC2=C(C=C(C=C2)S(=O)(=O)NC(=O)C3=CC=C(C=C3)N4CCC(CC4)[C@H](C5=CC=CC=C5C6=CC=C(C=C6)Cl)O)S(=O)(=O)C(F)(F)F)CCO [AZD4320] (first compound max 10 µM, 7x7, partner max 1 µM)",–,1,0.126,–,0.578,0.323,0.312,–,–,0.356,0.995,0.209,0.711,–,–,–,0.35,–,0.35,–
"CCc1c2c(nc3ccc(O)cc13)-c1cc3c(c(=O)n1C2)COC(=O)[C@]3(O)CC [SN-38] + O=C(c1cc(Cc2n[nH]c(=O)c3ccccc23)ccc1F)N1CCN(C(=O)C2CC2)CC1 [Olaparib] (first compound max 0.3 µM, 7x7, partner max 10 µM)",0.236,1,–,0.575,0.814,0.22,–,0.87,0.386,0.996,–,0.781,0.627,1,0.911,0.887,–,0.785,–,0.825
